Tests used:
Assay type in all cases: cell-based
[1] = target: T1, GPX1 (Homo sapiens, UniProt P07203); assay: Western blot of GPX1 in HT1080 cells; conditions: 24 h
T1 construct: endogenous in cells; host or cells: HT1080
T1 sequence (P07203 1-203): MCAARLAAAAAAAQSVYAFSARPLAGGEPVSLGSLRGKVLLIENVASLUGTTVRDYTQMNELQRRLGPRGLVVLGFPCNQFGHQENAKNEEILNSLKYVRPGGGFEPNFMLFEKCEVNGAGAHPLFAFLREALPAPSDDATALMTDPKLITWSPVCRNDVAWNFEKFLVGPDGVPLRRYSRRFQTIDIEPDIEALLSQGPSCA

[2] = target: T2, GPX4 (Homo sapiens, UniProt P36969); assay: Ubiquitination assay of GPX4 in HT1080 cells; parameters: determine the changes in the endogenous levels of GPX4 by western blot assay; endogenous in cells; host or cells: HT1080 fibrosarcoma cells, including siRNA-knockdown derivatives; conditions: 1 µM, 12 h
T2 sequence (P36969 1-170 isoform P36969-2): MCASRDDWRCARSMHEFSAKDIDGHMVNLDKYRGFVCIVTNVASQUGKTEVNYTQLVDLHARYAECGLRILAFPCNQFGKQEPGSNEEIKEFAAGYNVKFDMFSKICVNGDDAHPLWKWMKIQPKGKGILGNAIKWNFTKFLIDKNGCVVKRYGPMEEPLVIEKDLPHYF
Protocol: HT1080 cells were seeded in 15 cm culture dishes and allowed to adhere overnight. Then, the cells were treated with either 1 µM GDAz‐3 or an equivalent volume of DMSO for 12 h. Next, the proteasome inhibitor MG‐132 (5 µM) was added, and the cells were further incubated for 6 h. Once the incubation was completed, the cells were harvested and subjected to lysis using an IP lysis solution (#P0013J, Beyotime, Shanghai, China) to extract proteins. Then, the cell lysates were incubated with the GPX4 antibody (Proteintech, #67763‐1‐Ig, 1:100) overnight at 4 °C. Subsequently, protein A/G‐magnetic beads (#P2179, Beyotime, Shanghai, China) were added, and the mixture was incubated at 4 °C for 2 h on a rotator. After incubation, the beads were washed four times with immunoprecipitation buffer and then boiled in 1× loading buffer. The protein samples were then subjected to SDS‐PAGE analysis to evaluate the interactions between the target proteins. Finally, western blotting was used to detect proteins of interest in the co‐immunoprecipitation products. The ubiquitin assay was carried out under denaturing conditions.

[3] = target: T2, GPX4; assay: GPX4 degradation by western blot in 786-O cells; parameters: endogenous in cells; host or cells: 786-O; conditions: 24 h
Source text: As previously mentioned, drug resistance and limited application scope are the significant challenges of traditional PROTAC, due partly to CRBN/VHL mutations or low expression. In this study, we investigated whether the developed HSP70‐PROTAC could address these challenges. Specifically, we examined the developed HSP70‐PROTAC in scenarios where VHL‐ or CRBN‐based PROTACs are ineffective due to intrinsic or acquired resistance. Several previously reported representative GPX4‐targeting degraders, including dGPX4 (CRBN‐based PROTAC, Figure 1A), 8e (VHL‐based PROTAC, Figure 1B), and GDCNF‐11/2 (HSP90‐based HIM‐PROTAC, Figure 1C, the structure of the GDCNF‐11 derivative GDCNF‐2 was not shown) were selected as control agents.^[ [18], [23], [28] ^] […] The clear cell renal cell carcinoma (ccRCC) 786‐O cell line is a well‐established cancer cell model characterized by an intrinsic deficiency in VHL expression.^[ [43], [44], [45] ^] We also confirmed this characteristic through evaluating the VHL expression levels in several randomly selected cancer cell lines (Figure S10A, Supporting Information). We further selected 786‐O cells as a model to confirm whether HSP70‐PROTAC could be used in such cases as an alternative to VHL‐based degraders, because VHL‐based PROTACs cannot be used to treat kidney cancer with a mutation or deletion in the VHL gene.
Cells were seeded at a density of 4 × 10^5 cells well^−1 in 6‐well plates and allowed to incubate overnight. Cells were incubated with the indicated treatments. Thereafter, the cells were collected and lysed with RIPA buffer containing serine protease and phosphatase inhibitors for 30 min on ice. Proteins were quantified by using a BCA protein assay kit (Beyotime). Subsequently, SDS‐PAGE sample loading buffer was added, and the mixture was heated in a 100 °C metal bath for 10 min to denature the proteins. Protein samples from each group were separated by SDS‐PAGE gel and transferred to a PVDF membrane. After blocking with 5% skim milk for 1 h at room temperature, primary antibodies (GPX4: abcam (#ab125066, 1:1000); Hsp70: abcam (#ab2787, 1:1000); CHIP: HUABIO (#ST7108, 1:1000); UpingBio Technology Co., Ltd. (BRD4, #YP‐Ab‐18034, 1:1000; BAG‐1, #YP‐Ab‐00575, 1:1000); GAPDH: Proteintech (#60004‐1‐Ig, 1:50 000)) were used and incubated at 4 °C overnight on a rotary shaker. After washing the membranes with TBST buffer five times, the membranes were incubated with a second antibody (Cell Signaling Technology, #7074S, 1:1000 and #7076S, 1:1000) at room temperature for 2 h. Ultimately, the membrane was washed five times, and the antibody‐protein complexes were visualized using an ECL luminescence reagent (Biosharp, Shanghai, China). The relative intensities of the bands were analyzed by ImageJ and normalized to a loading control.

[4] = target: T3, GPX4 (Mus musculus, UniProt O70325); assay: GPX4 degradation by western blot in B16-F10 cells; conditions: 3 µM, 24 h
T3 construct: endogenous in cells; host or cells: B16-F10
T3 sequence (O70325 1-170 isoform O70325-2): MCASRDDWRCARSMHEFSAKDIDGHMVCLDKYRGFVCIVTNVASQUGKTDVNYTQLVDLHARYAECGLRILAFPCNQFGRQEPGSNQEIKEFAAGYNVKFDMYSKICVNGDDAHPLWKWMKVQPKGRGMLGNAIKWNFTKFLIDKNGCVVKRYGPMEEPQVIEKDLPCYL
Protocol: To further confirm this degradation efficacy, an in‐cell western (ICW) assay, a quantitative immunofluorescence cell‐based technique, was performed to quantify the relative expression level of GPX4 after treatment with GDAz‐3 for 24 h. […] Given the promising GPX4 degradation activity of GDAz‐3, we extended our evaluation to additional ferroptosis‐sensitive cell lines, including triple‐negative breast cancer cells (MDA‐MB‐231) and melanoma cells (mouse B16‐F10). […] Based on the observation that GDAz‐3 was particularly effective in HT1080 cells, we selected this cell line for further degradation mechanism and ferroptosis pharmacodynamics studies.
Cells were seeded at a density of 4 × 10^5 cells well^−1 in 6‐well plates and allowed to incubate overnight. Cells were incubated with the indicated treatments. Thereafter, the cells were collected and lysed with RIPA buffer containing serine protease and phosphatase inhibitors for 30 min on ice. Proteins were quantified by using a BCA protein assay kit (Beyotime). […] Ultimately, the membrane was washed five times, and the antibody‐protein complexes were visualized using an ECL luminescence reagent (Biosharp, Shanghai, China). The relative intensities of the bands were analyzed by ImageJ and normalized to a loading control.

SMILES: COc1ccc(-c2nc(-c3cc(C(F)(F)F)cc(C(F)(F)F)c3)n(Cc3ccc(C(=O)NCCOCCOCCOCCn4cc(COc5ccc(N(C(=O)CCl)C(C(=O)NCCc6ccccc6)c6cccs6)cc5Cl)nn4)cc3)c2-c2ccc(OC)cc2)cc1 (stereo not shown) [GDAz-3, 4-((2-(3,5-bis(trifluoromethyl)phenyl)-4,5-bis(4-methoxyphenyl)-1H-imidazol-1-yl)methyl)-N-(2-(2-(2-(2-(4-((2-chloro-4-(2-chloro-N-(2-oxo-2-(phenethylamino)-1-(thiophen-2-yl)ethyl)acetamido)phenoxy)methyl)-1H-1,2,3-triazol-1-yl)ethoxy)ethoxy)ethoxy)ethyl)benzamide]
- Effect on GPX1 protein [1]: did not show a significant effect
- Ubiquitination of GPX4 [2]: obviously increase the ubiquitination of GPX4
- GPX4 degradation in 786-O cells ([3]; 0.5 µM): obvious GPX4 degradation
- remaining activity at 0.1 µM ([3]; 786-0, 786-O cell line, 0.1 µM, read-out: GPX4 % of control): 89%
- remaining activity at 0.5 µM ([3]; 786-0, 786-O cell line, 0.5 µM, read-out: GPX4 % of control): 54%
- remaining activity at 1 µM ([3]; 786-0, 786-O cell line, 1 µM, read-out: GPX4 % of control): 33%
- GPX4 level [4]: markedly decreased GPX4 level

Reference: paper PMC12948223, “HSP70 Interactome‐Mediated Proteolysis Targeting Chimera (HSP70‐PROTAC) for Ferroptosis‐Driven Cancer Treatment” (Advanced Science, 2025)
